Test results published in ChEMBL document CHEMBL5331079, “Novel thiazolidines of potential anti-proliferation properties against esophageal squamous cell carcinoma via ERK pathway” (Eur J Med Chem, 2023).
pIC50: −log10 of the molar value. Blank lines part the entries; values can stand above or below the compound they belong to. Active and inactive are the calls of the source. The rule behind the calls is not given here.

Legend:
MCF7 = assay: Antiproliferative activity against human MCF7 cells assessed as inhibition of cell growth incubated for 96 hrs by MTT assay; assay type: functional, cell-based; details: MCF7, 96 h
KYSE-30 [1] = assay: Antiproliferative activity against human KYSE-30 cells assessed as inhibition of cell growth incubated for 72 hrs by MTT assay; assay type: functional, cell-based; details: KYSE-30, 72 h
KYSE-30 [2] = assay: Antiproliferative activity against human KYSE-30 cells assessed as reduction of cell viability at 1.25 to 100 uM incubated for 72 hrs by MTT assay; assay type: functional, cell-based; details: dose 1.25-100 µM
NES-G4T [3] = assay: Induction of apoptosis in human NES-G4T cells assessed as effect on ratio of AKT phosphorylation incubated for 4 to 12 hrs by Western blotting analysis; assay type: functional, cell-based; details: time 4-12 hrs
[4] = Antiproliferative activity against human HET-1A cells assessed as inhibition of cell growth incubated for 72 hrs by MTT assay; assay type: toxicity, cell-based
NES-G4T [5] = assay: Induction of apoptosis in human NES-G4T cells assessed as effect on ratio of ERK phosphorylation incubated for 4 to 12 hrs by Western blotting analysis; assay type: functional, cell-based; details: time 4-12 hrs
KYSE-150 cell line [6] = assay: Induction of apoptosis in human KYSE-150 cell line assessed as effect on ratio of ERK phosphorylation incubated for 4 to 12 hrs by Western blotting analysis; assay type: functional, cell-based; details: time 4-12 hrs
KYSE-150 cell line [7] = assay: Induction of apoptosis in human KYSE-150 cell line assessed as effect on ratio of AKT phosphorylation incubated for 4 to 12 hrs by Western blotting analysis; assay type: functional, cell-based; details: time 4-12 hrs
KYSE-150 cell line [8] = assay: Inhibition of cell growth in human KYSE-150 cell line at 10 uM incubated for 72 hrs by MTT assay relative to control; assay type: functional
HET-1A = assay: Antiproliferative activity against human HET-1A cells assessed as reduction of cell viability at 1.25 to 100 uM incubated for 72 hrs by MTT assay; assay type: toxicity, cell-based; details: dose 1.25-100 µM
KYSE-30 [9] = assay: Induction of apoptosis in human KYSE-30 cells assessed as loss of nuclei integrity at 10 uM incubated for 72 hrs by DAPI staining based confocal laser scanner microscopy analysis; assay type: functional, cell-based
KYSE-150 cell line [10] = assay: Induction of apoptosis in human KYSE-150 cell line assessed as downregulation of ERK protein level incubated for 4 to 12 hrs by Western blotting analysis; assay type: functional, cell-based; details: time 4-12 hrs, TDE = time-dependent effect
KYSE-30 [11] = assay: Induction of apoptosis in human KYSE-30 cells assessed as nuclear fragmentation at 10 uM incubated upto 72 hrs by DAPI staining based confocal laser scanner microscopy analysis; assay type: functional, cell-based
KYSE-150 cell line [12] = assay: Induction of apoptosis in human KYSE-150 cell line assessed as nuclear fragmentation at 10 uM incubated upto 72 hrs by DAPI staining based confocal laser scanner microscopy analysis; assay type: functional
KYSE-30 [13] = assay: Induction of apoptosis in human KYSE-30 cells assessed as chromatin condensation at 10 uM incubated upto 72 hrs by DAPI staining based confocal laser scanner microscopy analysis; assay type: functional, cell-based
KYSE-150 cell line [14] = assay: Induction of apoptosis in human KYSE-150 cell line assessed as chromatin condensation at 10 uM incubated upto 72 hrs by DAPI staining based confocal laser scanner microscopy analysis; assay type: functional
[15] = Antiproliferative activity against human NES-G4T cells assessed as reduction of cell viability at 1.25 to 100 uM incubated for 72 hrs by MTT assay; assay type: toxicity, cell-based; details: dose 1.25-100 µM
[16] = Antiproliferative activity against human NES-G4T cells assessed as inhibition of cell growth incubated for 72 hrs by MTT assay; assay type: toxicity, cell-based
KYSE-150 cell line [17] = assay: Antiproliferative activity against human KYSE-150 cell line assessed as reduction of cell viability at 1.25 to 100 uM incubated for 72 hrs by MTT assay; assay type: functional, cell-based; details: dose 1.25-100 µM
KYSE-150 cell line [18] = assay: Induction of apoptosis in human […] cell line assessed as loss of nuclei integrity at 10 uM incubated for 72 hrs by DAPI staining based confocal laser scanner microscopy analysis; assay type: functional
KYSE-150 cell line [19] = assay: Antiproliferative activity against human KYSE-150 cell line assessed as inhibition of cell growth incubated for 72 hrs by MTT assay; assay type: functional, cell-based; details: KYSE-150, 72 h

- pIC50 (MCF7): 6.30
Structure (SMILES): CNC(C)C#Cc1ccc(OC)cc1 (stereo not given)

Structure (SMILES): CC1(C)N/C(=N/c2ccccc2)S/C1=C\c1ccc(Br)cc1
- pIC50 (KYSE-30 [1]): 4.73

Structure (SMILES): CC1(C)N/C(=N/c2ccc(F)cc2)S/C1=C\c1ccc(Br)cc1
- pIC50 (KYSE-30 [1]): 4.97

Structure (SMILES): CC1(C)N/C(=N/c2ccc(Cl)cc2)S/C1=C\c1ccc(Br)cc1
- pIC50 (KYSE-30 [1]): 4.19

- pIC50 (MCF7): 6.30
Structure (SMILES): COc1ccc(/C=C2\S/C(=N\c3ccccc3)N(C)C2C)cc1 (stereo not given)

Structure (SMILES): COc1ccc(/N=C2/NC(C)(C)/C(=C/c3ccc(Br)cc3)S2)cc1
- pIC50 (KYSE-30 [1]): 4.85

Structure (SMILES): CC1(C)N/C(=N/c2ccc([N+](=O)[O-])cc2)S/C1=C\c1ccc(Br)cc1
- pIC50 (KYSE-30 [1]): 4.50

Structure (SMILES): CC1(C)N/C(=N/c2ccc(Br)cc2)S/C1=C\c1ccc(Br)cc1
- pIC50 (KYSE-30 [1]): 4.88

Structure (SMILES): Cc1ccc(/N=C2/NC(C)(C)/C(=C/c3ccc(Br)cc3)S2)cc1Cl
- pIC50 (KYSE-30 [1]): 4.18

Structure (SMILES): COc1ccc(/N=C2/NC(C)(C)/C(=C/c3ccc(Br)cc3)S2)c([N+](=O)[O-])c1
- Activity (KYSE-30 [2]): Dose-Dependent Effect
- Activity (NES-G4T [3]): inactive
- IC50 at 72 h [4]: 13 µM
- Activity (NES-G4T [5]): inactive
- Activity (KYSE-150 cell line [6]): inactive
- pIC50 (KYSE-30 [1]): 4.77
- Activity (KYSE-150 cell line [7]): inactive
- inhibition at 10 µM (KYSE-150 cell line [8]): 71%
- Activity (HET-1A): Toxic
- Activity (KYSE-30 [9]): Active
- Activity (KYSE-150 cell line [10]): Tde
- Activity (KYSE-30 [11]): Active
- Activity (KYSE-150 cell line [12]): Active
- Activity (KYSE-30 [13]): Active
- Activity (KYSE-150 cell line [14]): Active
- Activity [15]: Toxic
- IC50 at 72 h [16]: 202 µM
- Activity (KYSE-150 cell line [17]): Dose-Dependent Effect
- Activity (KYSE-150 cell line [18]): Active
- pIC50 (KYSE-150 cell line [19]): 5.00

Structure (SMILES): Cc1ccc(/N=C2/NC(C)(C)/C(=C/c3ccc(Br)cc3)S2)cc1
- pIC50 (KYSE-30 [1]): 4.19
